SMILES strings stand for the structures. “And” between values parts separate entries of the source, which are not always exact repeats. Equal values may be shown once.

Data set [1] has as its system spontaneous type 2 diabetes model db/db mouse. The experiment in a line: Effects on body weight, feed intake, urine volume and blood sugar in db/db mouse. Format: in vivo. Conditions: oral, 2 weeks. The method, then: The above-mentioned low dosage (0.01 mg/kg/day as canagliflozin) not showing an antihyperglycemic action was confirmed by the following method.
[…] Effects on body weight, feed intake, urine volume and blood sugar were confirmed.
FIGS. 6 and 7 show the results of fructosamine level which is an index for fasting blood sugar and average blood sugar levels when administering 3 mg/kg/day and 0.01 mg/kg/day of canagliflozin hydrate.

Data set [2] has as its system diabetic retinopathy having macular edema. The experiment in a line: Cases of diabetic retinopathy having macular edema, assessed by optical coherence tomography (OCT), HbA1c and vision. Format: in vivo, human. As for the experimental part:
To four cases of diabetic retinopathy having macular edema to which conventional intraocular injection of steroid or anti-VEGF antibody was not effective, the therapeutic agent of the present invention (existing SGLT2 inhibitor) was administered at a normal dosage amount or at a lower dosage amount, and the effect was confirmed. Specifically, for the three cases using dapagliflozin and one case using canagliflozin, the effect was confirmed by assessment using optical coherence tomography (OCT). Person; suffering from type 2 diabetes, accompanied with proliferative retinopathy in both eyes, and macular edema in both eyes. Steroid sub-tenon injection was frequently performed but was treatment-resistant. […], person; suffering from type 2 diabetes, accompanied with proliferative retinopathy in both eyes, and macular edema in both eyes. Steroid sub-tenon injection was performed but was treatment-resistant. […], person; suffering from type 2 diabetes, accompanied with simple diabetic retinopathy in both eyes, and macular edema in right eye. […], person; suffering from type 2 diabetes, accompanied with preproliferative diabetic retinopathy in both eyes, and macular edema in right eye. Steroid intraocular injection was performed to right eye macular edema, but was resistant.

Data set [3] has as its system increase of retinal vascular permeability in db/db mouse. The experiment in a line: Retinal vascular permeability (retinal albumin amount by western blot) in spontaneous type 2 diabetes model db/db mouse. Format: in vivo. To be noted: oral. The method, then: Subsequently, the amelioration effect on diabetic retinal function (amelioration effect on permeability increase which is a representative abnormality of diabetic retinal vessels) by the therapeutic agent of the present invention (existing SGLT2 inhibitor agent) was confirmed by using spontaneous type 2 diabetes model db/db mouse.
Since 8 weeks after birth of spontaneous type 2 diabetes model db/db mouse, a dosage amount (10 mg/kg/day as luseogliflozin) of luseogliflozin hydrate which is an existing SGLT2 inhibitor agent, with which an antihyperglycemic action is confirmed in mouse was orally administered. Two weeks after administration of SGLT2 inhibitor agent, the mouse was euthanized, and all blood vessels were sufficiently refluxed with 10 ml of phosphate buffer solution (PBS), and the eyeballs were extracted. After isolating retina, the albumin amount in the retinal tissues leaked from the blood vessels was measured by western blott method, to assess the vascular permeability increase. The albumin amount in retina was corrected with […], and is shown by % control by using control db/+ mouse as a standard.
Next, similarly as for luseogliflozin, the function improvement on increase of retinal vascular permeability was assessed using canagliflozin. Canagliflozin hydrate which is an existing SGLT2 inhibitor agent was orally administered for 2 weeks, at a dosage amount (3 mg/kg/day as canagliflozin) with which an antihyperglycemic action is confirmed in mouse, and at a low dosage (0.01 mg/kg/day as canagliflozin) not showing an antihyperglycemic action.
On the technique in general: In western blotting, separated proteins are transferred to a membrane and probed.

Data set [4] concerns the target T1, SGLT2 (Homo sapiens, UniProt P31639).
T1 sequence (P31639 1-672): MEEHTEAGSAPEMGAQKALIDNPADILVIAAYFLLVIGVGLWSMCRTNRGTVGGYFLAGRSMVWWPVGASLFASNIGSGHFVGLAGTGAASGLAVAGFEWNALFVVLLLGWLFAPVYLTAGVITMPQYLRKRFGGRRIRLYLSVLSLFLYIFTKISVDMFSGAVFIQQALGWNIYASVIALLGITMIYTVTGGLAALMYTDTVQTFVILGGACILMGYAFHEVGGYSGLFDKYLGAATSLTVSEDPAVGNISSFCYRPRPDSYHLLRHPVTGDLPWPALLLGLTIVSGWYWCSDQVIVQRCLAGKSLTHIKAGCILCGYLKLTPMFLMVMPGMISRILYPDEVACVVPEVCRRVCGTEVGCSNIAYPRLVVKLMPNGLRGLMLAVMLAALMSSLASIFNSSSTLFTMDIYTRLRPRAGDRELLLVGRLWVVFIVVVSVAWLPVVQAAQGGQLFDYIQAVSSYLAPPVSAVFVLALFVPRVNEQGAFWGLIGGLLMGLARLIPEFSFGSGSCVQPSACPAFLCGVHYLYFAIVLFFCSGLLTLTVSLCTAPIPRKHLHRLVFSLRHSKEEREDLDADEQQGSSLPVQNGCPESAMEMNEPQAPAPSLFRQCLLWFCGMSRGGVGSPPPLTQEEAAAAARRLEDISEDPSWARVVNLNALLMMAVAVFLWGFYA
Conditions: cited from earlier work.

For data set [5] the following is noted: authorized minimum dosage amount; cited from earlier work.

`Cc1ccc([C@@H]2O[C@H](CO)[C@@H](O)[C@H](O)[C@H]2O)cc1Cc1ccc(-c2ccc(F)cc2)s1` [canagliflozin hydrate]: the blood sugar entry in data set [1] (0.001 mg/kg/day) is recorded as “no significant decrease”; in data set [1] (0.01 mg/kg/day, hydrate) it was “no significant blood sugar decrease”; in data set [1] (0.1 mg/kg/day), “no significant decrease”. For the same molecule, the “fructosamine level which is an index for fasting blood sugar and average blood sugar levels” value in data set [1] (3 mg/kg/day, vs non-administered group (FIGS. 6 and 7)) is “significantly decreased”. In data set [2] (Case 2, 100 mg/day as canagliflozin), the blood sugar control entry was “no change in blood sugar control”. In addition, the HbA1 after administration in data set [2] (Case 2, 100 mg/day as canagliflozin, 8.0 before administration, hydrate) was 8.4 and 8.1 and 7.8. The OCT findings result in data set [2] (Case 2, 100 mg/day as canagliflozin, about 5 months after initiation of administration) is “decrease of macular retinal thickness, cyst reduction, and significant amelioration of laminar structure”. The “vision, right eye, after administration” value in data set [2] (Case 2, 100 mg/day as canagliflozin, from 0.4) is given as 0.5. For the same molecule, the “vision, left eye, after administration” value in data set [2] (Case 2, 100 mg/day as canagliflozin, from 0.7) is given as 1.2. Further, the “increase of retinal albumin amount (retinal vascular permeability)” value in data set [3] (0.01 mg/kg/day as canagliflozin, 2 weeks) is on record as “significantly ameliorated to the control group level”; in data set [3] (3 mg/kg/day as canagliflozin, 2 weeks) it was “significantly ameliorated to the control group level”.
With `CCOc1ccc(Cc2cc([C@@H]3O[C@H](CO)[C@@H](O)[C@H](O)[C@H]3O)ccc2Cl)cc1` [dapagliflozin propylene glycol hydrate], the HbA1 after administration in data set [2] (Case 1, 2.5 mg/day as dapagliflozin, 6.7 before administration) stood at 6.6. Further, the “vision, left eye, after administration” value in data set [2] (Case 1, 2.5 mg/day as dapagliflozin, did not change) came out at 1.2. In addition, the “vision, right eye, after administration” value in data set [2] (Case 1, 2.5 mg/day as dapagliflozin, from 0.7) is listed as 0.8. This molecule also displayed a vision after administration in data set [2] (Case 3, 2.5 mg/day as dapagliflozin, from 0.15) of 0.2. Further, the HbA1c after administration stood at 8.0 in data set [2] (Case 3, 2.5 mg/day as dapagliflozin, from 8.7) and 6.1% in data set [2] (Case 4, 2.5 mg/day as dapagliflozin, from 5.9, no change). In data set [2] (Case 4, 2.5 mg/day as dapagliflozin, did not change due to severe retinopathy), the vision worked out at 0.1.
`OC[C@H]1O[C@@H](c2ccc(Cl)c(Cc3ccc(O[C@H]4CCOC4)cc3)c2)[C@H](O)[C@@H](O)[C@@H]1O` [empagliflozin]: in data set [4], the “IC50 level showing the inhibition activity, compared with canagliflozin” value was “similar”. The “maximum blood concentration (Cmax) in the minimum dosage amount, relative to that of canagliflozin” value in data set [5] is recorded as “approximately 1/10”.
On to `OC[C@H]1O[C@@H](c2ccc(F)c(Cc3cc4ccccc4s3)c2)[C@H](O)[C@@H](O)[C@@H]1O` [ipragliflozin L-proline], for which the “IC50 level showing the inhibition activity, compared with canagliflozin” value in data set [4] is “similar”.
Turning to `CCOc1ccc(Cc2cc([C@@H]3S[C@H](CO)[C@@H](O)[C@H](O)[C@H]3O)c(OC)cc2C)cc1` [luseogliflozin hydrate], the “increase of retinal albumin amount (retinal vascular permeability)” value in data set [3] (10 mg/kg/day as luseogliflozin, two weeks) is “significantly ameliorated to the control group level”. For the same molecule, the “IC50 level showing the inhibition activity, compared with canagliflozin” value in data set [4] is “similar”. For the same molecule, in data set [5], the “maximum blood concentration (Cmax) in the minimum dosage amount, relative to that of canagliflozin” value is listed as “approximately 1/10”.
In the case of `CCc1ccc(Cc2ccc3c(c2)[C@]2(OC3)O[C@H](CO)[C@@H](O)[C@H](O)[C@H]2O)cc1` [tofogliflozin hydrate], the “IC50 level showing the inhibition activity, compared with canagliflozin” value in data set [4] is “similar”. The “maximum blood concentration (Cmax) in the minimum dosage amount, relative to that of canagliflozin” value in data set [5] is on record as “approximately 1/10”.

The record behind these values is patent US10821126B2, “Agent for treating retinopathy” (CARNA HEALTH SUPPORT LTD., priority 2016, dated 2020).
